Assay [1] relates to Leishmania donovani. Briefly: Antileishmanial activity against Leishmania donovani BPK043 amastigotes infected in Swiss mouse primary peritoneal mouse macrophages assessed as reduction of total parasite burden after 5 days. The assay is classed as functional, organism-based.
The test system of assay [2] is Leishmania donovani. The assay can be described thus: Antileishmanial activity against Leishmania donovani BPK091 amastigotes infected in Swiss mouse primary peritoneal mouse macrophages assessed as reduction of total parasite burden after 5 days. Format: functional, organism-based.
Assay [3] has as its system Leishmania donovani. The assay can be described thus: Antileishmanial activity against Leishmania donovani BPK178 amastigotes infected in Swiss mouse primary peritoneal mouse macrophages assessed as reduction of total parasite burden after 5 days. The assay is classed as functional, organism-based.
Assay [4] relates to Leishmania donovani. The assay can be described thus: Antileishmanial activity against Leishmania donovani BPK206 amastigotes infected in Swiss mouse primary peritoneal mouse macrophages assessed as reduction of total parasite burden after 5 days. Format: functional, organism-based.
The test system of assay [5] is Leishmania donovani. The assay can be described thus: Antileishmanial activity against Leishmania donovani BPK206cl amastigotes infected in Swiss mouse primary peritoneal mouse macrophages assessed as reduction of total parasite burden after 5 days. Format: functional, organism-based.
Assay [6] deals with Leishmania donovani. Briefly: Antileishmanial activity against Leishmania donovani BPK274 amastigotes infected in Swiss mouse primary peritoneal mouse macrophages assessed as reduction of total parasite burden after 5 days. The assay is classed as functional, organism-based.
For assay [7], the system named is Leishmania donovani. Briefly: Antileishmanial activity against Leishmania donovani BPK294 amastigotes infected in Swiss mouse primary peritoneal mouse macrophages assessed as reduction of total parasite burden after 5 days. The assay is classed as functional, organism-based.
For assay [8], the system named is Leishmania donovani. The assay can be described thus: Antileishmanial activity against Leishmania donovani BPK298 amastigotes infected in Swiss mouse primary peritoneal mouse macrophages assessed as reduction of total parasite burden after 5 days. Format: functional, organism-based.
The subject of assay [9] is Leishmania donovani. The assay can be described thus: Antileishmanial activity against Leishmania donovani BPK177 amastigotes infected in Swiss mouse primary peritoneal mouse macrophages assessed as reduction of total parasite burden after 5 days. Format: functional, organism-based.
The test system of assay [10] is Leishmania donovani. Briefly: Antileishmanial activity against Leishmania donovani BPK190 amastigotes infected in Swiss mouse primary peritoneal mouse macrophages assessed as reduction of total parasite burden after 5 days. The assay is classed as functional, organism-based.
The test system of assay [11] is Leishmania donovani. Briefly: Antileishmanial activity against Leishmania donovani BPK190cl amastigotes infected in Swiss mouse primary peritoneal mouse macrophages assessed as reduction of total parasite burden after 5 days. The assay is classed as functional, organism-based.
Assay [12] concerns Leishmania guyanensis. Briefly: Antileishmanial activity against Leishmania guyanensis PER106 amastigotes infected in Swiss mouse primary peritoneal mouse macrophages assessed as reduction of total parasite burden after 5 days. The assay is classed as functional, organism-based.
Assay [13] has as its system Leishmania guyanensis. The assay can be described thus: Antileishmanial activity against Leishmania guyanensis PER008 amastigotes infected in Swiss mouse primary peritoneal mouse macrophages assessed as reduction of total parasite burden after 5 days. The assay is classed as functional, organism-based.
In assay [14] the test system is Leishmania guyanensis. Briefly: Antileishmanial activity against Leishmania guyanensis PER054 amastigotes infected in Swiss mouse primary peritoneal mouse macrophages assessed as reduction of total parasite burden after 5 days. The assay is classed as functional, organism-based.
The test system of assay [15] is Leishmania guyanensis. Briefly: Antileishmanial activity against Leishmania guyanensis PER072 amastigotes infected in Swiss mouse primary peritoneal mouse macrophages assessed as reduction of total parasite burden after 5 days. The assay is classed as functional, organism-based.
Assay [16] deals with Leishmania guyanensis. The assay can be described thus: Antileishmanial activity against Leishmania guyanensis PER080 amastigotes infected in Swiss mouse primary peritoneal mouse macrophages assessed as reduction of total parasite burden after 5 days. The assay is classed as functional, organism-based.
In assay [17] the test system is Leishmania braziliensis. Briefly: Antileishmanial activity against Leishmania braziliensis PER002cl amastigotes infected in Swiss mouse primary peritoneal mouse macrophages assessed as reduction of total parasite burden after 5 days. The assay is classed as functional, organism-based.
The subject of assay [18] is Leishmania braziliensis. Briefly: Antileishmanial activity against Leishmania braziliensis PER005cl amastigotes infected in Swiss mouse primary peritoneal mouse macrophages assessed as reduction of total parasite burden after 5 days. Format: functional, organism-based.
Assay [19] relates to Leishmania donovani. Briefly: Activity index, ratio of IC50 for Leishmania donovani BPK091 to IC50 for Leishmania donovani BPK043. Format: functional, organism-based.
Assay [20] relates to Leishmania donovani. Briefly: Activity index, ratio of IC50 for Leishmania donovani BPK178 to IC50 for Leishmania donovani BPK043. The assay is classed as functional, organism-based.
The test system of assay [21] is Leishmania donovani. Briefly: Activity index, ratio of IC50 for Leishmania donovani BPK206 to IC50 for Leishmania donovani BPK043. The assay is classed as functional, organism-based.
Assay [22] deals with Leishmania donovani. Briefly: Activity index, ratio of IC50 for Leishmania donovani BPK206cl to IC50 for Leishmania donovani BPK043. The assay is classed as functional, organism-based.
Assay [23] has as its system Leishmania donovani. The assay can be described thus: Activity index, ratio of IC50 for Leishmania donovani BPK274 to IC50 for Leishmania donovani BPK043. The assay is classed as functional, organism-based.
Assay [24] concerns Leishmania donovani. Briefly: Activity index, ratio of IC50 for Leishmania donovani BPK294 to IC50 for Leishmania donovani BPK043. The assay is classed as functional, organism-based.
In assay [25] the test system is Leishmania donovani. The assay can be described thus: Activity index, ratio of IC50 for Leishmania donovani BPK298 to IC50 for Leishmania donovani BPK043. Format: functional, organism-based.
Assay [26] concerns Leishmania donovani. Briefly: Activity index, ratio of IC50 for Leishmania donovani BPK177 to IC50 for Leishmania donovani BPK043. The assay is classed as functional, organism-based.
Assay [27] relates to Leishmania donovani. The assay can be described thus: Activity index, ratio of IC50 for Leishmania donovani BPK190 to IC50 for Leishmania donovani BPK043. Format: functional, organism-based.
Assay [28] relates to Leishmania donovani. Briefly: Activity index, ratio of IC50 for Leishmania donovani BPK190cl to IC50 for Leishmania donovani BPK043. The assay is classed as functional, organism-based.
In assay [29] the test system is Leishmania guyanensis. The assay can be described thus: Activity index, ratio of IC50 for Leishmania guyanensis PER008 to IC50 for Leishmania guyanensis PER106. The assay is classed as functional, organism-based.
For assay [30], the system named is Leishmania guyanensis. Briefly: Activity index, ratio of IC50 for Leishmania guyanensis PER054 to IC50 for Leishmania guyanensis PER106. Format: functional, organism-based.
Assay [31] has as its system Leishmania guyanensis. The assay can be described thus: Activity index, ratio of IC50 for Leishmania guyanensis PER072 to IC50 for Leishmania guyanensis PER106. The assay is classed as functional, organism-based.
In assay [32] the test system is Leishmania guyanensis. The assay can be described thus: Activity index, ratio of IC50 for Leishmania guyanensis PER080 to IC50 for Leishmania guyanensis PER106. Format: functional, organism-based.
A short description of assay [33]: Activity index, ratio of IC50 for Leishmania braziliensis PER002cl to IC50 for Leishmania guyanensis PER106. The assay is classed as functional.
Assay [34] is described as follows: Activity index, ratio of IC50 for Leishmania braziliensis PER005cl to IC50 for Leishmania guyanensis PER106. The assay is classed as functional.

pIC50: −log10 of the molar value.

This passage reports IC50 and Ratio IC50 results from ChEMBL document CHEMBL1649271, “In vitro sensitivity testing of Leishmania clinical field isolates: preconditioning of promastigotes enhances infectivity for macrophage host cells” (Antimicrob Agents Chemother, 2009).

For orientation: pIC50 means −log10 of the IC50, conventionally taken in molar units. What is called IC50 is the concentration that inhibits the measured activity by half.

For the molecule `CCCCCCCCCCCCCCCCOP(=O)([O-])OCC[N+](C)(C)C` [MILTEFOSINE], the pIC50 in the assay on Leishmania donovani [1] (Leishmania donovani, BPK043, 120 h, read-out: IC50) is 5.82; in the assay with Leishmania donovani [2] (Leishmania donovani, BPK091, 120 h, read-out: IC50), 5.49; with Leishmania donovani [3] (Leishmania donovani, BPK178, 120 h, read-out: IC50) it was 5.26; in the assay with Leishmania donovani [4] (Leishmania donovani, BPK206, 120 h, read-out: IC50) it was 5.40; with Leishmania donovani [5] (Leishmania donovani, BPK206cl, 120 h, read-out: IC50) it was 5.70; in the assay on Leishmania donovani [6] (Leishmania donovani, BPK274, 120 h, read-out: IC50), 5.15. The pIC50 with Leishmania donovani [7] (Leishmania donovani, BPK294, 120 h, read-out: IC50) is 5.52; in the assay on Leishmania donovani [8] (Leishmania donovani, BPK298, 120 h, read-out: IC50) it was 5.47; with Leishmania donovani [9] (Leishmania donovani, BPK177, 120 h, read-out: IC50) it was 5.70; in the assay with Leishmania donovani [10] (Leishmania donovani, BPK190, 120 h, read-out: IC50), 5.35; in the assay on Leishmania donovani [11] (Leishmania donovani, BPK190cl, 120 h, read-out: IC50), 5.52; in the assay with Leishmania guyanensis [12] (Leishmania guyanensis, PER106, 120 h, read-out: IC50), 5.00. The pIC50 with Leishmania guyanensis [13] (Leishmania guyanensis, PER008, 120 h, read-out: IC50) was 5.30; with Leishmania guyanensis [14] (Leishmania guyanensis, PER054, 120 h, read-out: IC50), 5.02; in the assay with Leishmania guyanensis [15] (Leishmania guyanensis, PER072, 120 h, read-out: IC50) it was 5.00; with Leishmania guyanensis [16] (Leishmania guyanensis, PER080, 120 h, read-out: IC50), 5.12; with Leishmania braziliensis [17] (Leishmania braziliensis, PER002cl, 120 h, read-out: IC50), 4.99; in the assay with Leishmania braziliensis [18] (Leishmania braziliensis, PER005cl, 120 h, read-out: IC50) it was 5.00.

Turning to “POTASSIUM ANTIMONYL TARTRATE TRIHYDRATE [listing 1 of 2 here]”, the half-inhibitory concentration (IC50) amounted to 6 µg/mL with Leishmania donovani [1]; 24.2 µg/mL in the assay on Leishmania donovani [2]; 21.8 µg/mL in the assay with Leishmania donovani [3]; 11 µg/mL in the assay on Leishmania donovani [4]; 5 µg/mL in the assay on Leishmania donovani [5]; 16.2 µg/mL with Leishmania donovani [6]. The half-inhibitory concentration (IC50) in the assay on Leishmania donovani [7] came out at 6 µg/mL; in the assay on Leishmania donovani [8], 12 µg/mL; in the assay with Leishmania donovani [9], 32 µg/mL; with Leishmania donovani [10] it was 27.3 µg/mL; in the assay on Leishmania donovani [11] it was 24 µg/mL; with Leishmania guyanensis [12], 12 µg/mL. The IC50 in the assay on Leishmania guyanensis [13] amounted to 18 µg/mL; in the assay on Leishmania guyanensis [14], 18 µg/mL; in the assay on Leishmania guyanensis [15], 19 µg/mL; in the assay with Leishmania guyanensis [16], 14.5 µg/mL; in the assay with Leishmania braziliensis [17] it was 13.5 µg/mL; with Leishmania braziliensis [18], 25 µg/mL.

In the case of “POTASSIUM ANTIMONYL TARTRATE TRIHYDRATE [listing 2 of 2 here]”, the Ratio IC50 in the assay on Leishmania donovani [19] was determined as 3.9; in the assay on Leishmania donovani [20] it was 3.6; with Leishmania donovani [21] it was 1.8; with Leishmania donovani [22], 0.8; in the assay on Leishmania donovani [23] it was 2.7; with Leishmania donovani [24] it was 1. Further, the Ratio IC50 was 2 in the assay on Leishmania donovani [25]; 5.3 in the assay with Leishmania donovani [26]; 4.5 in the assay with Leishmania donovani [27]; 4 in the assay with Leishmania donovani [28]; 1.6 with Leishmania guyanensis [29]; 1.6 in the assay on Leishmania guyanensis [30]. The Ratio IC50 is 1.6 in the assay on Leishmania guyanensis [31], 1.4 in the assay with Leishmania guyanensis [32], 1.3 in [33] and 2.4 in assay [34].

In the case of sodium stibogluconate, the Ratio IC50 in the assay on Leishmania donovani [19] amounted to 3.2; in the assay on Leishmania donovani [20] it was 3.1; in the assay on Leishmania donovani [21] it was 3.6; in the assay with Leishmania donovani [22], 5.5; in the assay with Leishmania donovani [23], 3.2; in the assay on Leishmania donovani [24], 1.5. Moreover, the Ratio IC50 is 1.9 with Leishmania donovani [25]; 6.6 with Leishmania donovani [26]; 6.6 with Leishmania donovani [27]; 4.2 in the assay on Leishmania donovani [28]; 3.2 with Leishmania guyanensis [29]; 4 in the assay on Leishmania guyanensis [30]. Further, the Ratio IC50 with Leishmania guyanensis [31] worked out at 6; with Leishmania guyanensis [32], 2.5; in assay [33], 4.5; in assay [34], 5.8.
